Values of other authors in patent US5385885A, “Inhibition of smooth muscle cell proliferation by antistasin and tick anticoagulant peptide” (priority 1991, dated 1995).

Tests used:
[1] = system: smooth muscle cells of rat carotid arteries; settings: site-delivered; after balloon catheterization; Edelman et al.; cited from earlier work
[2] = system: smooth muscle cell proliferative response to balloon catheter injury; settings: rat model; Powell et al.; cited from earlier work

Row | Compound | Proliferation of smooth muscle cells [1] | Smooth muscle cell proliferative response to balloon catheter injury [2]
1 | heparin | effectively diminished | –
2 | CCOC(=O)[C@H](CCc1ccccc1)N[C@H]1CCCN2CCC[C@@H](C(=O)O)N2C1=O [cilazapril] | – | specifically inhibits
